# Reference: PubChem BioAssay (NCI)
#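 Results reflect a 48-hour exposure of cells in 96-well plates to compound at five concentrations. TGI denotes the concentration required for complete inhibition of growth.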
# How the values were obtained:
# Experiment in all cases: NCI-60 cell line screen, 48 h
# A549 NSCLC = test system: A549 NSCLC
# ACHN renal = test system: ACHN renal
# CCRF-CEM leukemia = test system: CCRF-CEM leukemia
# DLD-1 colon = test system: DLD-1 colon
# DMS 114 small cell lung = test system: DMS 114 small cell lung
# DMS 273 small cell lung = test system: DMS 273 small cell lung
# HCT-116 colon = test system: HCT-116 colon
# HCT-15 colon = test system: HCT-15 colon
# HL-60(TB) leukemia = test system: HL-60(TB) leukemia
# HT29 colon = test system: HT29 colon
# K-562 leukemia = test system: K-562 leukemia
# KM12 colon = test system: KM12 colon
# LOX IMVI melanoma = test system: LOX IMVI melanoma
# LXFL 529 NSCLC = test system: LXFL 529 NSCLC
# MALME-3M melanoma = test system: MALME-3M melanoma
# MOLT-4 leukemia = test system: MOLT-4 leukemia
# NCI-H226 lung = test system: NCI-H226 lung
# NCI-H23 lung = test system: NCI-H23 lung
# NCI-H460 lung = test system: NCI-H460 lung
# NCI-H522 lung = test system: NCI-H522 lung
# OVCAR-3 ovarian = test system: OVCAR-3 ovarian
# OVCAR-4 ovarian = test system: OVCAR-4 ovarian
# OVCAR-8 ovarian = test system: OVCAR-8 ovarian
# RXF 393 renal = test system: RXF 393 renal
# SF-268 CNS = test system: SF-268 CNS
# SF-295 CNS = test system: SF-295 CNS
# SF-539 CNS = test system: SF-539 CNS
# SK-MEL-2 melanoma = test system: SK-MEL-2 melanoma
# SK-MEL-28 melanoma = test system: SK-MEL-28 melanoma
# SK-MEL-5 melanoma = test system: SK-MEL-5 melanoma
# SK-OV-3 ovarian = test system: SK-OV-3 ovarian
# SN12C renal = test system: SN12C renal
# SNB-19 CNS = test system: SNB-19 CNS
# SNB-75 CNS = test system: SNB-75 CNS
# SNB-78 CNS = test system: SNB-78 CNS
# SW-620 colon = test system: SW-620 colon
# TK-10 renal = test system: TK-10 renal
# U251 CNS = test system: U251 CNS
# UACC-257 melanoma = test system: UACC-257 melanoma
# UACC-62 melanoma = test system: UACC-62 melanoma
# XF 498 CNS = test system: XF 498 CNS
# 786-0 renal = test system: 786-0 renal
# A498 renal = test system: A498 renal
# CAKI-1 renal = test system: CAKI-1 renal
# COLO 205 colon = test system: COLO 205 colon
# EKVX NSCLC = test system: EKVX NSCLC
# HOP-62 NSCLC = test system: HOP-62 NSCLC
# IGROV1 ovarian = test system: IGROV1 ovarian
# KM20L2 colon = test system: KM20L2 colon
# M14 melanoma = test system: M14 melanoma
# M19-MEL melanoma = test system: M19-MEL melanoma
# OVCAR-5 ovarian = test system: OVCAR-5 ovarian
# RPMI-8226 leukemia = test system: RPMI-8226 leukemia
# SR leukemia = test system: SR leukemia
# UO-31 renal = test system: UO-31 renal
# HCC-2998 colon = test system: HCC-2998 colon
# HOP-92 NSCLC = test system: HOP-92 NSCLC
compound,measurement,setting,value
CN(C)CCCNC(=O)c1cccc2ccccc12,TGI,A549 NSCLC,> 100 µM
same,TGI,ACHN renal,> 100 µM
same,TGI,CCRF-CEM leukemia,> 100 µM
same,TGI,DLD-1 colon,> 100 µM
same,TGI,DMS 114 small cell lung,> 100 µM
same,TGI,DMS 273 small cell lung,> 100 µM
same,TGI,HCT-116 colon,> 100 µM
same,TGI,HCT-15 colon,> 100 µM
same,TGI,HL-60(TB) leukemia,> 100 µM
same,TGI,HT29 colon,> 100 µM
same,TGI,K-562 leukemia,> 100 µM
same,TGI,KM12 colon,> 100 µM
same,TGI,LOX IMVI melanoma,> 100 µM
same,TGI,LXFL 529 NSCLC,> 100 µM
same,TGI,MALME-3M melanoma,> 100 µM
same,TGI,MOLT-4 leukemia,> 100 µM
same,TGI,NCI-H226 lung,> 100 µM
same,TGI,NCI-H23 lung,> 100 µM
same,TGI,NCI-H460 lung,> 100 µM
same,TGI,NCI-H522 lung,> 100 µM
same,TGI,OVCAR-3 ovarian,> 100 µM
same,TGI,OVCAR-4 ovarian,> 100 µM
same,TGI,OVCAR-8 ovarian,> 100 µM
same,TGI,RXF 393 renal,> 100 µM
same,TGI,SF-268 CNS,> 100 µM
same,TGI,SF-295 CNS,> 100 µM
same,TGI,SF-539 CNS,> 100 µM
same,TGI,SK-MEL-2 melanoma,> 100 µM
same,TGI,SK-MEL-28 melanoma,> 100 µM
same,TGI,SK-MEL-5 melanoma,> 100 µM
same,TGI,SK-OV-3 ovarian,> 100 µM
same,TGI,SN12C renal,> 100 µM
same,TGI,SNB-19 CNS,> 100 µM
same,TGI,SNB-75 CNS,> 100 µM
same,TGI,SNB-78 CNS,> 100 µM
same,TGI,SW-620 colon,> 100 µM
same,TGI,TK-10 renal,> 100 µM
same,TGI,U251 CNS,> 100 µM
same,TGI,UACC-257 melanoma,> 100 µM
same,TGI,UACC-62 melanoma,> 100 µM
same,TGI,XF 498 CNS,> 100 µM
CCC1=C(CC)C1(C#N)[N+](=O)[O-],TGI,786-0 renal,> 100 µM
same,TGI,A498 renal,> 100 µM
same,TGI,A549 NSCLC,> 100 µM
same,TGI,ACHN renal,> 100 µM
same,TGI,CAKI-1 renal,> 100 µM
same,TGI,CCRF-CEM leukemia,> 100 µM
same,TGI,COLO 205 colon,> 100 µM
same,TGI,DLD-1 colon,> 100 µM
same,TGI,DMS 114 small cell lung,> 100 µM
same,TGI,DMS 273 small cell lung,> 100 µM
same,TGI,EKVX NSCLC,> 100 µM
same,TGI,HCT-116 colon,> 100 µM
same,TGI,HCT-15 colon,> 100 µM
same,TGI,HL-60(TB) leukemia,> 100 µM
same,TGI,HOP-62 NSCLC,> 100 µM
same,TGI,HT29 colon,> 100 µM
same,TGI,IGROV1 ovarian,> 100 µM
same,TGI,K-562 leukemia,> 100 µM
same,TGI,KM12 colon,> 100 µM
same,TGI,KM20L2 colon,> 100 µM
same,TGI,LOX IMVI melanoma,> 100 µM
same,TGI,LXFL 529 NSCLC,> 100 µM
same,TGI,M14 melanoma,> 100 µM
same,TGI,M19-MEL melanoma,> 100 µM
same,TGI,MALME-3M melanoma,> 100 µM
same,TGI,MOLT-4 leukemia,> 100 µM
same,TGI,NCI-H226 lung,> 100 µM
same,TGI,NCI-H23 lung,> 100 µM
same,TGI,NCI-H460 lung,> 100 µM
same,TGI,NCI-H522 lung,> 100 µM
same,TGI,OVCAR-3 ovarian,> 100 µM
same,TGI,OVCAR-4 ovarian,> 100 µM
same,TGI,OVCAR-5 ovarian,> 100 µM
same,TGI,OVCAR-8 ovarian,> 100 µM
same,TGI,RPMI-8226 leukemia,> 100 µM
same,TGI,SF-268 CNS,> 100 µM
same,TGI,SF-295 CNS,> 100 µM
same,TGI,SF-539 CNS,> 100 µM
same,TGI,SK-MEL-2 melanoma,> 100 µM
same,TGI,SK-MEL-5 melanoma,> 100 µM
same,TGI,SK-OV-3 ovarian,> 100 µM
same,TGI,SN12C renal,> 100 µM
same,TGI,SNB-19 CNS,> 100 µM
same,TGI,SNB-78 CNS,> 100 µM
same,TGI,SR leukemia,> 100 µM
same,TGI,SW-620 colon,> 100 µM
same,TGI,TK-10 renal,> 100 µM
same,TGI,U251 CNS,> 100 µM
same,TGI,UACC-257 melanoma,> 100 µM
same,TGI,UACC-62 melanoma,> 100 µM
same,TGI,UO-31 renal,> 100 µM
Cc1ccc(S(=O)(=O)N(/N=C/C=C/c2ccccc2)c2nnc(-c3ccccc3)c(-c3ccccc3)n2)cc1,TGI,786-0 renal,74.3 µM
same,TGI,A498 renal,> 100 µM
same,TGI,A549 NSCLC,94.4 µM
same,TGI,ACHN renal,> 100 µM
same,TGI,CAKI-1 renal,57 µM
same,TGI,CCRF-CEM leukemia,> 100 µM
same,TGI,COLO 205 colon,36.1 µM
same,TGI,DLD-1 colon,> 100 µM
same,TGI,DMS 114 small cell lung,54.1 µM
same,TGI,DMS 273 small cell lung,66.9 µM
same,TGI,EKVX NSCLC,> 100 µM
same,TGI,HCC-2998 colon,29.5 µM
same,TGI,HCT-15 colon,> 100 µM
same,TGI,HL-60(TB) leukemia,50.4 µM
same,TGI,HOP-62 NSCLC,48.9 µM
same,TGI,HOP-92 NSCLC,47.4 µM
same,TGI,HT29 colon,23 µM
same,TGI,IGROV1 ovarian,> 100 µM
same,TGI,K-562 leukemia,80 µM
same,TGI,KM12 colon,> 100 µM
same,TGI,KM20L2 colon,40.5 µM
same,TGI,LOX IMVI melanoma,51.3 µM
same,TGI,M14 melanoma,49.4 µM
same,TGI,M19-MEL melanoma,78.3 µM
same,TGI,MALME-3M melanoma,> 100 µM
same,TGI,MOLT-4 leukemia,76.5 µM
same,TGI,NCI-H226 lung,55.6 µM
same,TGI,NCI-H23 lung,66.8 µM
same,TGI,NCI-H460 lung,> 100 µM
same,TGI,NCI-H522 lung,51.9 µM
same,TGI,OVCAR-3 ovarian,88.6 µM
same,TGI,OVCAR-4 ovarian,> 100 µM
same,TGI,OVCAR-5 ovarian,> 100 µM
same,TGI,OVCAR-8 ovarian,> 100 µM
same,TGI,RPMI-8226 leukemia,40.3 µM
same,TGI,RXF 393 renal,60.7 µM
same,TGI,SF-268 CNS,96.9 µM
same,TGI,SF-295 CNS,64.3 µM
same,TGI,SF-539 CNS,33 µM
same,TGI,SK-MEL-2 melanoma,47.8 µM
same,TGI,SK-MEL-28 melanoma,78.4 µM
same,TGI,SK-MEL-5 melanoma,35.1 µM
same,TGI,SK-OV-3 ovarian,75.1 µM
same,TGI,SN12C renal,> 100 µM
same,TGI,SNB-19 CNS,> 100 µM
same,TGI,SNB-75 CNS,69 µM
same,TGI,SNB-78 CNS,> 100 µM
same,TGI,SW-620 colon,> 100 µM
same,TGI,TK-10 renal,76.9 µM
same,TGI,U251 CNS,> 100 µM
same,TGI,UACC-257 melanoma,98.7 µM
same,TGI,UACC-62 melanoma,> 100 µM
same,TGI,UO-31 renal,23.4 µM
